From US5985844A, “Homoerythromycin A derivatives modified at the 4"-and 8A-positions” (Merck & Co., Inc., priority 1992, dated 1999)
Converted amounts (≈) assume the structure as drawn. Like-named read-outs stand apart in the source and are kept apart here.

Columns and labels:
Experiment in all cases: liquid turbidimetric microtiter MIC, broth media
Type in all cases: cell-based
[1] = test system: Staphylococcus aureus MB 2865
Excerpt: (§1) The antibacterial activities of the compounds of Examples 8 and 10 against a panel of aerobic Gram positive and negative bacteria is shown in Table I. Similarly, the antibacterial activities of the compounds of Examples 89, 94, 96, and 97 are presented in Table II. The assay employs a liquid turbidimetric microtiter method for the determination of the minimum inhibitory concentration (MIC) in broth media. […] The MIC is generally not an absolute value but rather a concentration range that falls within a two-fold dilution limit. Generally twelve two-fold dilutions of the test compound are employed with the initial concentration set at 128 mcg/ml.

Escherichia coli MB 2884 = test system: Escherichia coli MB 2884
Excerpt: as §1

[2] = test system: Haemophilus influenzae AT 43163
Excerpt: as §1

[3] = test system: Streptococcus pyogenes MB 2874
Excerpt: as §1

[4] = test system: Haemophilus influenzae MB 5363
Excerpt: as §1

[5] = test system: Enterobacter cloacae CL 4298
Excerpt: as §1

[6] = test system: Klebsiella pneumoniae MB 4005
Excerpt: as §1

[7] = test system: Enterococcus faecalis MB 5407
Excerpt: as §1

[8] = test system: Streptococcus pneumoniae CL 2883
Excerpt: as §1

[9] = test system: Staphylococcus epidermidis MB 5414
Excerpt: as §1

[10] = test system: Staphylococcus haemolyticus MB 5412; conditions: MB5412
Excerpt: as §1

[11] = test system: Streptococcus agalactiae CL 1343; conditions: CL1343
Excerpt: as §1

[12] = test system: Streptococcus pyogenes MB 54061; conditions: MB54061
Excerpt: as §1

Escherichia coli MB 4926 = conditions: MB4926
Excerpt: as §1

[13] = test system: Pseudomonas stutzeri MB 1231; conditions: Stutzerimonas stutzeri, MB1231
Excerpt: as §1

[14] = test system: Enterococcus faecium MB 5416; conditions: MB5416
Excerpt: as §1

[15] = test system: Streptococcus viridans CL 2943; conditions: CL2943
Excerpt: as §1

## CC[C@H]1OC(=O)[C@H](C)[C@@H](O[C@H]2C[C@@](C)(OC)[C@@H](N)[C@H](C)O2)[C@H](C)[C@@H](O[C@@H]2O[C@H](C)C[C@H](N(C)C)[C@H]2O)[C@](C)(O)C[C@@H](C)N(C)C[C@H](C)[C@@H](O)[C@]1(C)O [Example 96, 4"-Deoxy-4"-(S)-amino-9-deoxo-8a-aza-8a-methyl-8a-homoerythromycin A]
[1]
  MIC: 1 mg/L (≈ 1.34 µM)
Escherichia coli MB 2884
  MIC: 0.12 mg/L (≈ 0.16 µM)
[2]
  MIC: 0.25 mg/L (≈ 0.334 µM)
[3]
  MIC: ≤ 0.06 mg/L
[4]
  MIC: 0.25 mg/L (≈ 0.334 µM)
[5]
  MIC: ≤ 0.06 mg/L
[6]
  MIC: 0.12 mg/L (≈ 0.16 µM)
[7]
  MIC: 2 mg/L (≈ 2.67 µM)
[8]
  MIC: ≤ 0.06 mg/L
[9]
  MIC: 0.51 mg/L (≈ 0.682 µM)

## CC[C@H]1OC(=O)[C@H](C)[C@@H](O[C@H]2C[C@@](C)(OC)[C@@H](O)[C@H](C)O2)[C@H](C)[C@@H](O[C@@H]2O[C@H](C)C[C@H](N(C)C)[C@H]2O)[C@](C)(O)C[C@@H](C)NC[C@H](C)[C@@H](O)[C@]1(C)O [Example 8, 9-Deoxo-8a-aza-8a-homoerythromycin A]
[10]
  MIC: 0.5 mg/L (≈ 0.68 µM)
[11]
  MIC: ≤ 0.06 mg/L
[1]; MB2865, read-out: MIC
  MIC: 0.5 mg/L (≈ 0.68 µM)
[12]
  MIC: 128 mg/L (≈ 174 µM)
Escherichia coli MB 2884; MB2884, read-out: MIC
  MIC: 4 mg/L (≈ 5.44 µM)
Escherichia coli MB 4926
  MIC: 2 mg/L (≈ 2.72 µM)
[13]
  MIC: ≤ 0.06 mg/L
[3]; MB2874, read-out: MIC
  MIC: ≤ 0.06 mg/L
[6]; MB4005, read-out: MIC
  MIC: 8 mg/L (≈ 10.9 µM)
[7]; MB5407, read-out: MIC
  MIC: 8 mg/L (≈ 10.9 µM)
[14]
  MIC: 0.25 mg/L (≈ 0.34 µM)
[15]
  MIC: 8 mg/L (≈ 10.9 µM)
[8]; CL2883, read-out: MIC
  MIC: ≤ 0.06 mg/L
[9]; MB5414, read-out: MIC
  MIC: 1 mg/L (≈ 1.36 µM)

## CC[C@H]1OC(=O)[C@H](C)[C@@H](O[C@H]2C[C@@](C)(OC)[C@@H](O)[C@H](C)O2)[C@H](C)[C@@H](O[C@@H]2O[C@H](C)C[C@H](N(C)C)[C@H]2O)[C@](C)(O)C[C@@H](C)N(C)C[C@H](C)[C@@H](O)[C@]1(C)O [Example 10, 9-Deoxo-8a-aza-8a-methyl-8a-homoerythromycin A]
[10]
  MIC: 0.5 mg/L (≈ 0.668 µM)
[11]
  MIC: ≤ 0.06 mg/L
[1]; MB2865, read-out: MIC
  MIC: 0.5 mg/L (≈ 0.668 µM)
[12]
  MIC: 128 mg/L (≈ 171 µM)
Escherichia coli MB 2884; MB2884, read-out: MIC
  MIC: 1 mg/L (≈ 1.34 µM)
Escherichia coli MB 4926
  MIC: 0.06 mg/L (≈ 0.0801 µM)
[13]
  MIC: ≤ 0.06 mg/L
[3]; MB2874, read-out: MIC
  MIC: ≤ 0.06 mg/L
[6]; MB4005, read-out: MIC
  MIC: 2 mg/L (≈ 2.67 µM)
[7]; MB5407, read-out: MIC
  MIC: 4 mg/L (≈ 5.34 µM)
[14]
  MIC: 0.25 mg/L (≈ 0.334 µM)
[15]
  MIC: 1 mg/L (≈ 1.34 µM)
[8]; CL2883, read-out: MIC
  MIC: ≤ 0.06 mg/L
[9]; MB5414, read-out: MIC
  MIC: 1 mg/L (≈ 1.34 µM)

## 4"-Deoxy-4"-amino-9-deoxo-8a-aza-8a-methyl-8a-homoerythromycin A [Example 94]
[1]
  MIC: 1 mg/L
Escherichia coli MB 2884
  MIC: 0.12 mg/L
[2]
  MIC: 0.25 mg/L
[3]
  MIC: ≤ 0.06 mg/L
[4]
  MIC: 0.5 mg/L
[5]
  MIC: ≤ 0.06 mg/L
[6]
  MIC: 0.12 mg/L
[7]
  MIC: 4 mg/L
[8]
  MIC: ≤ 0.06 mg/L
[9]
  MIC: 0.5 mg/L

## CC[C@H]1OC(=O)[C@H](C)[C@@H](O[C@H]2C[C@@](C)(OC)[C@H](O)[C@H](C)O2)[C@H](C)[C@@H](O[C@@H]2O[C@H](C)C[C@H](N(C)C)[C@H]2O)[C@](C)(O)C[C@@H](C)N(C)C[C@H](C)[C@@H](O)[C@]1(C)O [Example 89, 4"-epi-9-deoxo-8a-aza-8a-methyl-8a-homoerythromycin A]
[1]; MB2865, read-out: MIC
  MIC: 0.5 mg/L (≈ 0.668 µM)
Escherichia coli MB 2884; MB2884, read-out: MIC
  MIC: 1 mg/L (≈ 1.34 µM)
[2]; AT43163, read-out: MIC
  MIC: 0.5 mg/L (≈ 0.668 µM)
[3]; MB2874, read-out: MIC
  MIC: ≤ 0.06 mg/L
[4]; MB5363, read-out: MIC
  MIC: 0.5 mg/L (≈ 0.668 µM)
[5]; CL4298, read-out: MIC
  MIC: 0.5 mg/L (≈ 0.668 µM)
[6]; MB4005, read-out: MIC
  MIC: 1 mg/L (≈ 1.34 µM)
[7]; MB5407, read-out: MIC
  MIC: 1 mg/L (≈ 1.34 µM)
[8]; CL2883, read-out: MIC
  MIC: ≤ 0.06 mg/L
[9]; MB5414, read-out: MIC
  MIC: 0.25 mg/L (≈ 0.334 µM)

## CC[C@H]1OC(=O)[C@H](C)[C@@H](O[C@H]2C[C@@](C)(OC)[C@H](N)[C@H](C)O2)[C@H](C)[C@@H](O[C@@H]2O[C@H](C)C[C@H](N(C)C)[C@H]2O)[C@](C)(O)C[C@@H](C)N(C)C[C@H](C)[C@@H](O)[C@]1(C)O [Example 97, 4"-Deoxy-4"-(R)-amino-9-deoxo-8a-aza-8a-methyl-8a-homoerythromycin A]
[1]
  MIC: 1 mg/L (≈ 1.34 µM)
Escherichia coli MB 2884
  MIC: 0.25 mg/L (≈ 0.334 µM)
[2]
  MIC: 0.25 mg/L (≈ 0.334 µM)
[3]
  MIC: ≤ 0.06 mg/L
[4]
  MIC: 0.5 mg/L (≈ 0.668 µM)
[5]
  MIC: 0.12 mg/L (≈ 0.16 µM)
[6]
  MIC: 0.25 mg/L (≈ 0.334 µM)
[7]
  MIC: 2 mg/L (≈ 2.67 µM)
[8]
  MIC: ≤ 0.06 mg/L
[9]
  MIC: 0.5 mg/L (≈ 0.668 µM)

## CC[C@H]1OC(=O)[C@H](C)[C@@H](O[C@H]2C[C@@](C)(OC)[C@@H](O)[C@H](C)O2)[C@H](C)[C@@H](O[C@@H]2O[C@H](C)C[C@H](N(C)C)[C@H]2O)[C@](C)(O)C[C@@H](C)C(=O)[C@H](C)[C@@H](O)[C@]1(C)O [Erythromycin A, erythromycin A]
[1]
  MIC: 0.12 mg/L (≈ 0.164 µM)
Escherichia coli MB 2884; MB2884, read-out: MIC
  MIC: 16 mg/L (≈ 21.8 µM)
[2]
  MIC: 2 mg/L (≈ 2.73 µM)
[3]
  MIC: ≤ 0.06 mg/L
[4]
  MIC: 2 mg/L (≈ 2.73 µM)
[5]
  MIC: 16 mg/L (≈ 21.8 µM)
[6]
  MIC: 32 mg/L (≈ 43.6 µM)
[7]
  MIC: 1 mg/L (≈ 1.36 µM)
[8]
  MIC: ≤ 0.06 mg/L
[9]
  MIC: 0.12 mg/L (≈ 0.164 µM)
